Measurements published in patent US8268836B2, “Compound useful as a c-Met inhibitor” (Eli Lilly and Company, priority 2010, dated 2012).
pEC50: −log10 of the molar value. In brackets after ≈: the same amount, converted by molar mass. Where two headings read alike, the source gives them in different places.

Experiments:
99 kinases = test: Cerep Express Diversity Kinase Profile screening; format: biochemical
From the text: The Express Diversity Kinase Profile™ is a screening service developed by Cerep SA (Paris, France). Details of assay conditions and/or contact information can be found on their website http://www.cerep.fecerep/users/pages/catalog/profiles/catalog.asp).

[1] = system: KP4 pancreatic xenografts; test: Xenograft tumor model KP4; format: in vivo, mice
Procedure: Human glioblastoma cells U87MG, human gastric cancer cells MKN45, or human pancreatic KP4 cells are cultured and implanted subcutaneously in the rear flank of female CD-1 nu/nu strain mice which have been acclimated for one week in the animal facility after receipt from the vendor. Mice are randomized into groups of 10 mice per group. Testing compound is prepared in an appropriate vehicle and is administered by oral gavage when tumors are established (7-21 days after implant, or when the mean tumor volume reaches ˜100 mm^3). Tumor response is determined by tumor volume measurement performed twice a week during the course of treatment. Fluctuations in body weight are also monitored as a general measurement of toxicity. The compound of example 1 is orally administered twice a day for 28 days.
For statistical analysis, the individual subject tumor volumes are transformed to log volume and are analyzed with a two-way repeated measures analysis of variance by time and treatment using the MIXED procedures in SAS software (version 8.2). The correlation model for the repeated measures is spatial power. Treated groups are compared to the control group at the final time point. The MIXED procedure is also used separately for each treatment group to calculate adjusted means and standard errors at each time point. Both analyses account for the autocorrelation within each subject.

Dynamic solubility = format: physicochemical; conditions: for solubility at 18 h: thermodynamic from solid
Procedure: The media included simulated gastric fluid (SGF) which comprise of 0.01N HCl, 0.05% sodium lauryl sulfate, and 0.2% NaCl; fasted state simulated intestinal fluid (SIF-fasted) which composed of 29 mM NaH2PO4, 3 mM Na taurocholate, 0.75 mM lecithin, 103 mM NaCl, and NaOH to pH 6.5; fed state simulated intestinal fluid (SIF-fed) which comprise of 144 mM acetic acid, 15 mM Na taurocholate, 3.75 mM lecithin, 204 mM NaCl, and NaOH to pH 5.0; and pH 4.5, 6, 7.5 buffers which are 28-56 mM phosphate buffers. The compound concentrations are determined using Agilent 1200 HPLC (LC5) with a UV detector. Mobile phase uses A (85%) which is water containing 0.1% TFA and B (15%) which is ACN at a flow rate of 1 mL/min and run time of 10 min. Column of Zorbax, Bonus-RP (3.5 μm, 4.6×75 mm; SN: USTM002428) is used in the studies.

[2] = molecular target: T1, human c-Met (phospho-c-Met in S114 tumors) (Homo sapiens, UniProt P08581); test: c-Met in vivo target inhibition (IVTI) assay, S114 tumors in nude mice; set-up: species or system mouse
T1 construct: expressed in transfected cells; host or cells: S114 cells grown as subcutaneous tumors in athymic nude mice
Procedure: S114 cells (over-expressing both human HGF and human c-Met) are cultured in a growth media (Dulbecco's Modified Eagle Medium) supplemented with 10% fetal calf serum and expanded. Cells are harvested and washed twice with phosphate buffered saline and 2×10^6 cells are mixed with equal volume of BD Matrigel™ matrix (BD Bioscience, Franklin, N.J.), and injected subcutaneously into the flank of nude mice (athymic nude, from Harlan, Indianapolis, Ind.). At day 8 after implant, compounds (formulated in 10% acacia or 1% carboxymethylcellulose/0.5% sodium lauryl sulfate/0.05% antifoam as suspension) are administered to animals by oral gavage at 50 mg/kg. Animals are sacrificed at 2 h post dose, and tumors are harvested and stored frozen until needed.
Frozen tumors are pulverized using motar-pestel. The pulverized tissues are transferred to a tube containing Lysing Matrix D beads (MP Biomedicals, Solon, Ohio) and 600 μL lysis buffer (RIPA buffer, containing 50 mM Tris-HCl, pH 7.4, 150 mM NaCl, 1% NP-40, 0.5% sodium deoxycholate, 0.1% SDS, from Boston Bioproducts, Phosphatase Inhibitors I and II and Protease Inhibitor (Sigma, St. Louis, Mo.)). A FastPrep® Cell Disrupter (MP Biomedicals, Inc.) is used to disrupt the tissue and lyse the cells. Lysates are passed through a 20 gauge needle and transferred to a clean tube. Protein concentration is determined by Bradford method known to one of skill in the art.
Tumor lysates are loaded onto MSD® phosphor-Met ELISA plates and phosphor-c-Met level is determined using the same protocol as H460 cell-based ELISA. […] The TEC50 for example 1 is 0.18 μM with a 95% confidence interval bounded by 0.13 μM and 0.23 μM.
In IVTI studies, each compound is administered orally and formulated in 10% w/v acacia. Mouse blood samples are collected with anti-coagulant (EDTA-purple top Vacutainer tube) post-dose using cardiac puncture techniques. Tubes are inverted for 3-5 times and are placed on ice until centrifugation at 3000 RPM (1800×g) for 10 min at 4° C. to obtain plasma. Aliquots of plasma are pipetted and stored in a clean 96 well plate. Plasma samples are stored immediately at −80° C. Shipments of plasma samples are packed in dry ice and samples are frozen at −80° C. until analysis.

T1 sequence (P08581 25-1390): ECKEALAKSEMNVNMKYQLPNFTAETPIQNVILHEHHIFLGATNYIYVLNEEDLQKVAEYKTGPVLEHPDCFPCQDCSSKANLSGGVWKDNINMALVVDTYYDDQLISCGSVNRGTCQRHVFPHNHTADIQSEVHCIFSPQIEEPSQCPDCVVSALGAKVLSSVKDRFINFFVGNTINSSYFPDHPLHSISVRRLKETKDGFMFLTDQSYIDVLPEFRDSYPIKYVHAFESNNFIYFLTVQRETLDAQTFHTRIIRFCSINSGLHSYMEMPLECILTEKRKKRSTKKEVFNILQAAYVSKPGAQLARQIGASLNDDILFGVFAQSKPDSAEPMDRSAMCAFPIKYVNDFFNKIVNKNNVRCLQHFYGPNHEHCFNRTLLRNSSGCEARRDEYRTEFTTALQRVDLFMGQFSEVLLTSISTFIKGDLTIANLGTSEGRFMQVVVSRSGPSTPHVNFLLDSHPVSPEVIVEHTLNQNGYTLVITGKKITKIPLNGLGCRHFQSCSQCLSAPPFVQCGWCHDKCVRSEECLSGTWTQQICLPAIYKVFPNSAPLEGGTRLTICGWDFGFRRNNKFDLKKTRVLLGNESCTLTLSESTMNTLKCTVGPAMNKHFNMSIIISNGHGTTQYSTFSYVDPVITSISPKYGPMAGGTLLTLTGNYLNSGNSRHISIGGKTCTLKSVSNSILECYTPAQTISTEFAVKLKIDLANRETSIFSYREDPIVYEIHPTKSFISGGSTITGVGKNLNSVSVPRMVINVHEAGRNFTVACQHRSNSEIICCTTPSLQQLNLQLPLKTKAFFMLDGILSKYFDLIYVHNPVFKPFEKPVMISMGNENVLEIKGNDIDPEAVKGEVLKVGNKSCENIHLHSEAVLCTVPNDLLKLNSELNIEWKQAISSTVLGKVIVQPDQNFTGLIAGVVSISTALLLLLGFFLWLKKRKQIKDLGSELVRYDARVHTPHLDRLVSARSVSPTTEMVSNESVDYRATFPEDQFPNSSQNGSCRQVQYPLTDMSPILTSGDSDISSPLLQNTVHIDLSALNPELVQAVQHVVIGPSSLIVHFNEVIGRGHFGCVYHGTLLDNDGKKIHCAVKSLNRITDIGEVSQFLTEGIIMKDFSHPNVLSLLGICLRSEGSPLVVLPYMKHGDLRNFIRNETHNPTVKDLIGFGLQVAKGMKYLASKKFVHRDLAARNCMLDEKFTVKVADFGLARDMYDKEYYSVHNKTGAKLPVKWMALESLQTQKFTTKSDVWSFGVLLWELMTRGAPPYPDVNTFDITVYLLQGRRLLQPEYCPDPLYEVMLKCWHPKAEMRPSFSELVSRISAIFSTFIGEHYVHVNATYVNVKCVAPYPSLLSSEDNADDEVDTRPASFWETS

Cn1cc(-c2ccc3nnc(Sc4ccc5nn(C)cc5c4)n3n2)cn1 [Example 1, 6-(1-Methyl-1H-pyrazol-4-yl)-3-(2-methyl-2H-indazol-5-ylthio)-[1,2,4]triazolo[4,3-b]pyridazine]
Kinases inhibited in Cerep screening of 99 kinases (99 kinases): inhibited only c-Met | Mean Tumor Volume ± Standard Error ([1]; 2 mg/kg oral twice a day for 28 days): 1229 ± 83 mm^3 | Mean Tumor Volume ± Standard Error ([1]; 4 mg/kg oral twice a day for 28 days): 1085 ± 256 mm^3 | Mean Tumor Volume ± Standard Error ([1]; 8 mg/kg oral twice a day for 28 days): 627 ± 74 mm^3 | Mean Tumor Volume ± Standard Error ([1]; 16 mg/kg oral twice a day for 28 days): 554 ± 47 mm^3 | Mean Tumor Volume ± Standard Error ([1]; 32 mg/kg oral twice a day for 28 days): 273 ± 42 mm^3 | solubility at 18 h (Dynamic solubility; 0.01N HCl, simulated gastric fluid, read-out: Dynamic solubility, 0.01N HCl): 11 µg/mL (≈ 30.4 µM) | solubility at 18 h (Dynamic solubility; 0.1N HCl, simulated gastric fluid, read-out: Dynamic solubility, 0.1N HCl): 33 µg/mL (≈ 91.1 µM) | fold more soluble than the reference compound, SIF fasted (Dynamic solubility; SIF fasted state): approximately 13 fold | fold more soluble than the reference compound, SIF fed (Dynamic solubility; SIF fed state): ~14 fold | solubility at 18 h (Dynamic solubility; aqueous buffer, pH ≧ 4 phosphate buffer, read-out: Dynamic solubility, pH ≧ 4 buffer): ~10 µg/mL (≈ 27.6 µM) | solubility at 18 h (Dynamic solubility; fassif, fasted state simulated intestinal fluid pH 6.5, 18 h ambient, read-out: Dynamic solubility, SIF Fasted): 13 µg/mL (≈ 35.9 µM) | solubility at 18 h (Dynamic solubility; fessif, fed state simulated intestinal fluid pH 5.0, 18 h ambient, read-out: Dynamic solubility, SIF Fed): 70 µg/mL (≈ 193 µM) | solubility at 18 h (Dynamic solubility; simulated gastric fluid, 18 h ambient, read-out: Dynamic solubility, SGF): 52 µg/mL (≈ 143 µM) | solubility at 18 h (Dynamic solubility; water, read-out: Dynamic solubility, Water): 9 µg/mL (≈ 24.8 µM) | inhibition at 16 mg/kg ([2]; 16 mg/Kg dose, 2 h, experiment separate from head to head study, read-out: Single dose IVTI % inhibition after 2 h): 98% | pEC50 ([2]; S114 tumors in nude mice, read-out: TEC50): 6.74 | inhibition at 8 mg/kg ([2]; S114 tumors, oral 8 mg/kg, 8 h, read-out: % phos-Met inhibition at 8 mg/kg after 8 h): 75% | inhibition at 20 mg/kg ([2]; S114 tumors, oral 20 mg/kg, 8 h, read-out: % phos-Met inhibition at 20 mg/kg after 8 h): 93% | ED50 ([2]; oral gavage, S114 tumors in nude mice): 0.32 mg/kg
